In the test the target is T1, Dual specificity protein phosphatase 1 (Homo sapiens, UniProt P28562).
T1 sequence (P28562 whole entry): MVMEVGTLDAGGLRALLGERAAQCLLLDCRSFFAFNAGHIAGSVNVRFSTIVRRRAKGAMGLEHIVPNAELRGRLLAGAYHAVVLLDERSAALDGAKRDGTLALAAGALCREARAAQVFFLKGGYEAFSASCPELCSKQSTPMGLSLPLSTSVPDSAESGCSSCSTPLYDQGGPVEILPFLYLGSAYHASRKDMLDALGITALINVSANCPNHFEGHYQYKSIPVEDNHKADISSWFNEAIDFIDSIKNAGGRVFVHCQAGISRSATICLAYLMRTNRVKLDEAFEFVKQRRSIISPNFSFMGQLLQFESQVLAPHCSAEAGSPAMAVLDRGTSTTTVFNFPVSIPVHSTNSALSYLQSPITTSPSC
In words: MKP-1 phosphatase inhibitor potency, dose response, biochemical, in vitro, confirmation (AID 551). The note with it: pH 7; 22 °C.

Bounds are passed on as bounds.

Data on 25 molecules can be found in BindingDB's records for doi:10.7270/Q2F769WQ (University of Pittsburgh, 2007).

Usually IC50 stands for the concentration that inhibits the measured activity by half. Low readings indicate greater potency, high ones weaker potency. Take `N#Cc1c(N2CCCC2)nc(N)c2c(N)nc(N3CCCC3)cc12` [SMR000061605]: the IC50 was 0.136 µM.
`CCCn1nnc(NC(=O)c2cc(Br)cc(Br)c2OC)n1` [3,5-bis(bromanyl)-2-methoxy-N-(2-propyl-1,2,3,4-tetrazol-5-yl)benzamide]: the IC50 was greater than 50 µM.
In turn, `COc1ccc(-c2cn3c(C)c(C(=O)Nc4cccc(C)n4)sc3n2)cc1` [6-(4-methoxyphenyl)-3-methyl-N-(6-methyl-2-pyridinyl)-2-imidazo[2,1-b]thiazolecarboxamide] returned an IC50 greater than 50 µM.
With `O=C1C=Cc2ccccc2/C1=C/NC12CN3CCN(CN(C3)C1)C2` [MLS000071484], the IC50 was greater than 50 µM.
Regarding `Cc1ccc(S(=O)(=O)NCC(C)NS(=O)(=O)c2ccc(C)cc2)cc1` (stereo not given) [4-methyl-N-[2-(tosylamino)propyl]benzenesulfonamide], the IC50 is greater than 50 µM.
In the case of `c1ccc(SCc2nc(-c3ccncc3)no2)cc1` [4-{5-[(phenylthio)methyl]-1,2,4-oxadiazol-3-yl}pyridine] it was greater than 50 µM; in that of `COc1ccc(Br)cc1C=c1sc2nc(-c3ccco3)nn2c1=O` [5-[(5-bromanyl-2-methoxy-phenyl)methylidene]-2-(furan-2-yl)-[1,3]thiazolo[3,2-b][1,2,4]triazol-6-one], 4.49 µM.
In the case of `Cc1cccc(N2CCN(S(=O)(=O)c3ccc4c(c3)CCN4C(=O)CCC(=O)O)CC2)c1C` [4-(5-{[4-(2,3-dimethylphenyl)piperazin-1-yl]sulfonyl}-2,3-dihydro-1H-indol-1-yl)-4-oxobutanoic acid] it was greater than 50 µM.
In the case of `CCOC(=O)CC(=O)CSc1nnc2sc3ccccc3n12` [3-keto-4-([1,2,4]triazolo[3,4-b][1,3]benzothiazol-1-ylthio)butyric acid ethyl ester] it was greater than 50 µM; in that of `Cc1nn2c(-c3cccc(NC(=O)c4ccco4)c3)nnc2c2ccccc12` [MLS000097401], greater than 50 µM.
As for `CCCCn1c(NC(=O)c2ccccc2)c(C#N)c2nc3ccccc3nc21` [SMR000060333], the IC50 was found to be 23.5 µM.
In the case of `Cc1cc(NC(=O)c2ccc(S(=O)(=O)N3CCCC3)cc2)nc2c1c(=O)oc1ccccc12` [MLS000091355] it was 38.2 µM.
The same measure for `CC1CCCCC1NC(=O)CCn1c(=O)oc2ccccc21` (stereo not given) [3-(2-keto-1,3-benzoxazol-3-yl)-N-(2-methylcyclohexyl)propionamide]: greater than 50 µM.
In the case of `CCn1cc(C(=O)NC2CCC(C)CC2)c(=O)c2cc(S(=O)(=O)N3CCCCC3)ccc21` (stereo not given) it was 48.6 µM; in that of `CCn1c(SCC(=O)Nc2ccc3c(c2)c2ccccc2n3CC)nnc1-c1ccco1` [MLS000050867], 11.4 µM; in that of `FC(F)(F)c1ccc(N2CCOCC2)c(Nc2nc3ccccc3n3cnnc23)c1` [MLS000093276], 22.7 µM.
In the case of `CC1CCN(S(=O)(=O)c2ccc3c(c2)c(=O)c(C(=O)NC2CCCC2)cn3C)CC1` [MLS000095109], the IC50 was greater than 50 µM.
In the case of `CCOC(=O)N1CCC(NC(=O)c2cccn3c(=O)c4cc(Br)ccc4nc23)CC1` [4-[(2-bromo-11-keto-pyrido[2,1-b]quinazoline-6-carbonyl)amino]piperidine-1-carboxylic acid ethyl ester] it was greater than 50 µM.
The molecule `CC12CC(NC(=O)N1c1ccc(C(=O)N3CCN(c4ccc(F)cc4)CC3)cc1)c1ccccc1O2` (stereo not given) [SMR000026617] yielded an IC50 greater than 50 µM.
In the case of `O=C(CSc1nc2c(cnn2-c2ccccc2)c(=O)[nH]1)c1ccc(Cl)cc1` [MLS000091816], the IC50 was greater than 50 µM.
The same measure for `COC(=O)CCC(=O)Oc1ccc(OC(=O)CCC(=O)OC)cc1` [4-O-[4-(4-methoxy-4-oxobutanoyl)oxyphenyl] 1-O-methyl butanedioate]: greater than 50 µM; for `O=C(NC1CC1)c1c[nH]c2ccc(S(=O)(=O)Nc3cccc(C(F)(F)F)c3)cc2c1=O` [MLS000046685]: greater than 50 µM.
In the case of `CCCCNC(=O)c1c(N)n(CCCOC)c2nc3ccccc3nc12` [2-amino-N-butyl-1-(3-methoxypropyl)-3-pyrrolo[3,2-b]quinoxalinecarboxamide] it was 26.2 µM; in that of `CCCCn1c(SCC(=O)c2ccc(OC)cc2OC)nc2cc(S(N)(=O)=O)ccc21` [1-butyl-2-[2-(2,4-dimethoxyphenyl)-2-oxidanylidene-ethyl]sulfanyl-benzimidazole-5-sulfonamide], greater than 50 µM.
The molecule `O=c1c2ccc[nH]c-2c(Nc2ccc(S(=O)(=O)N3CCCCCC3)cc2)n1Cc1ccccc1` [7-[[4-(azepan-1-ylsulfonyl)phenyl]amino]-6-(phenylmethyl)-7H-pyrrolo[3,4-b]pyridin-5-one] returned an IC50 greater than 50 µM.
